The text below walks through data of patent publication US8889667B2 (Agios Pharmaceuticals, Inc, priority 2010, dated 2014).

The structures appear in SMILES notation.

The target in one test is PKM2 (Homo sapiens, UniProt P14618). Kind of test: PKM2 Assay (activation, LDH-coupled, absorbance at 340 nm). The test is classed as biochemical. The following applies: Table 4. The method in brief: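 Human PKM2 (50 ng/well) was preincubated with compound and coupling mix for 30 min at 4 °C without ADP. Reactions were then started with ADP (0.7 mM) alongside PEP 0.15 mM, NADH 180 μM and LDH, in Tris pH 7.5/KCl/MgCl2/DTT/BSA buffer. A340 was followed at 25 °C and activation reported as AC50.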
Sequence of PKM2 (P14618 whole entry): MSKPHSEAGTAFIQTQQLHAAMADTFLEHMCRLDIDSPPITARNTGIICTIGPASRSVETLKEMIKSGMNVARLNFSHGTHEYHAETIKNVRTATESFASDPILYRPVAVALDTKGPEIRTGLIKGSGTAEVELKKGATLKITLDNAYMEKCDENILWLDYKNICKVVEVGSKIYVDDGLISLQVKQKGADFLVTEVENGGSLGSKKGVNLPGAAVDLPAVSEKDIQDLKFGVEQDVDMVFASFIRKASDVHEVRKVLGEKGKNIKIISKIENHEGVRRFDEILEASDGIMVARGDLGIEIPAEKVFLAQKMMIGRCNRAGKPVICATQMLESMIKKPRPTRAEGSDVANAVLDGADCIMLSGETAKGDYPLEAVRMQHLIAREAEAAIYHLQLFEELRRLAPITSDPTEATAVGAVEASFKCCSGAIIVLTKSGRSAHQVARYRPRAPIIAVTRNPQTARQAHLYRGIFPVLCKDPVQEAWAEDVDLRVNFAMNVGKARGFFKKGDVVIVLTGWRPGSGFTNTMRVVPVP
A word on the AC50: it is the concentration giving half of the maximal activity seen. Lower therefore signals activity at low concentration. In the case of `CC(c1c(F)ccc(F)c1F)N1CCN(C(=O)c2ccc(NS(=O)(=O)c3cccc4cccnc34)cc2)[C@@H](C)C1` (stereo partly drawn) [Compound 192, N-(4-((2S)-2-methyl-4-(1-(2,3,6-trifluorophenyl)ethyl)piperazine-1-carbonyl)phenyl)quinoline-8-sulfonamide], the AC50 lay in the range of 100 to 500 nM.

Consider `C[C@@H]1CN(C(=O)OCC2CCCO2)CCN1C(=O)c1ccc(NS(=O)(=O)c2cccc3cccnc23)cc1` (stereo partly drawn) [Compound 128, (3R)-(Tetrahydrofuran-2-yl)methyl3-methyl-4-(4-(quinoline-8-sulfonamido)benzoyl)piperazine-1-carboxylate], for which the AC50 was less than 100 nM.

Consider `CC1CN(Cc2cc(F)cc(F)c2)CC(C)N1C(=O)c1ccc(NS(=O)(=O)c2cccc3cccnc23)cc1` (centres unmarked) [Compound 194, N-(4-(4-(3,5-difluorobenzyl)-2,6-dimethylpiperazine-1-carbonyl)phenyl)quinoline-8-sulfonamide], for which the AC50 is less than 100 nM.

In turn, `CC(c1cc(F)c(F)cc1F)N1CCN(C(=O)c2ccc(NS(=O)(=O)c3cccc4cccnc34)cc2)[C@H](C)C1` (some centres unmarked) [Compound 168] gave an AC50 of 100 to 500 nM.

As to `CC(C)COC(=O)N1[C@H](C)CN(C(=O)c2ccc(NS(=O)(=O)c3cccc4cccnc34)cc2)C[C@@H]1C` [Compound 105, (2S,6R)-isobutyl-2,6-dimethyl-4-(4-(quinoline-8-sulfonamido)benzoyl)piperazine-1-carboxylate], the AC50 was 100 to 500 nM.

On to `COc1cccc(CN2CCN(C(=O)c3ccc(NS(=O)(=O)c4cccc5cccnc45)cc3)[C@H](C)C2)c1OC` [Compound 130, (R)—N-(4-(4-(2,3-dimethoxybenzyl)-2-methylpiperazine-1-carbonyl)phenyl)quinoline-8-sulfonamide], for which the AC50 is less than 100 nM.

`C[C@@H]1CN(Cc2ccc(F)c(F)c2F)CCN1C(=O)c1ccc(NS(=O)(=O)c2cccc3cccnc23)cc1` [Compound 118, (R)—N-(4-(2-methyl-4-(2,3,4-trifluorobenzyl)piperazine-1-carbonyl)phenyl)quinoline-8-sulfonamide] returned an AC50 of less than 100 nM.

The compound `O=C(c1ccc(NS(=O)(=O)c2cccc3cccnc23)cc1)N1C2CCC1CN(CC1CC1)C2` [Compound 228, N-(4-(3-(cyclopropylmethyl)-3,8-diazabicyclo[3.2.1]octane-8-carbonyl)phenyl)quinoline-8-sulfonamide] returned an AC50 of 100 to 500 nM.

The test is the same for the next values; noted with them: Table 5.
Turning to `COc1cc(C(=O)N2CCN(C3(c4ccccc4)CC3)CC2)ccc1NS(=O)(=O)c1cccc2cccnc12` [Compound 352, N-(2-methoxy-4-(4-(1-phenylcyclopropyl)piperazine-1-carbonyl)phenyl)quinoline-8-sulfonamide], the AC50 lay within 100 to 500 nM.

As for `Cc1cnc(C(=O)N2CCN(C(=O)c3ccc(NS(=O)(=O)c4cccc5cccnc45)cc3)CC2)cn1` [Compound 346, N-(4-(4-(5-methylpyrazine-2-carbonyl)piperazine-1-carbonyl)phenyl)quinoline-8-sulfonamide], the AC50 was in the range of 500 to 1000 nM.

As to `CC(c1c(F)cccc1F)N1CCN(C(=O)c2ccc(NS(=O)(=O)c3cccc4cccnc34)cc2)CC1` (centres unmarked) [Compound 357, N-(4-(4-(1-(2,6-difluorophenyl)ethyl)piperazine-1-carbonyl)phenyl)quinoline-8-sulfonamide], the AC50 was less than 100 nM.

Compound `O=C(c1ccc(NS(=O)(=O)c2cccc3cccnc23)c(OC(F)(F)F)c1)N1CCN(Cc2ccc(F)cc2F)CC1` [Compound 369, N-(4-(4-(2,4-difluorobenzyl)piperazine-1-carbonyl)-2-(trifluoromethoxy)phenyl)quinoline-8-sulfonamide] displayed a concentration at half-maximal activity (AC50) of 500 to 1000 nM.

Consider `O=C(c1ccc(NS(=O)(=O)c2cccc3cccnc23)cc1)N1CCN(C2(c3ccc(F)cc3)CC2)CC1` [Compound 399, N-(4-(4-(1-(4-fluorophenyl)cyclopropyl)piperazine-1-carbonyl)phenyl)quinoline-8-sulfonamide], for which the AC50 is less than 100 nM.

Take `CC(c1cc(F)c(F)c(F)c1)N1CCN(C(=O)c2ccc(NS(=O)(=O)c3cccc4cccnc34)cc2)CC1` (centres unmarked) [Compound 398, N-(4-(4-(1-(3,4,5-trifluorophenyl)ethyl)piperazine-1-carbonyl)phenyl)quinoline-8-sulfonamide]: the AC50 is 1000 to 20000 nM.

As to `O=C(c1ccc(NS(=O)(=O)c2cccc3cccnc23)cn1)N1CCN(Cc2ccc(F)cc2)CC1` [Compound 416, N-(6-(4-(4-fluorobenzyl)piperazine-1-carbonyl)pyridin-3-yl)quinoline-8-sulfonamide], the AC50 was 100 to 500 nM.

For the compound `COc1cc(C(=O)N2CCN(C3(c4ccc(F)cc4)CC3)CC2)ccc1NS(=O)(=O)c1cccc2cccnc12` [Compound 400, N-(4-(4-(1-(4-fluorophenyl)cyclopropyl)piperazine-1-carbonyl)-2-methoxyphenyl)quinoline-8-sulfonamide], the concentration at half-maximal activity (AC50) is less than 100 nM.

In turn, `CC(C)(c1ccccc1F)N1CCN(C(=O)c2ccc(NS(=O)(=O)c3cccc4cccnc34)cc2)CC1` [Compound 409, N-(4-(4-(2-(2-fluorophenyl)propan-2-yl)piperazine-1-carbonyl)phenyl)quinoline-8-sulfonamide] showed an AC50 of 100 to 500 nM.

Turning to `O=C(c1ccc(NS(=O)(=O)c2cccc3cccnc23)cc1Cl)N1CCN(Cc2cc(F)c(F)cc2F)CC1` [Compound 433, N-(3-chloro-4-(4-(2,4,5-trifluorobenzyl)piperazine-1-carbonyl)phenyl)quinoline-8-sulfonamide], the concentration at half-maximal activity (AC50) was less than 100 nM.

Compound `O=C(c1ccc(NS(=O)(=O)c2cccc3cccnc23)cc1)N1CCN(C2(c3ccccc3)CCC2)CC1` [Compound 408, N-(4-(4-(1-phenylcyclobutyl)piperazine-1-carbonyl)phenyl)quinoline-8-sulfonamide] displayed an AC50 of less than 100 nM.

`O=C(c1ccc(NS(=O)(=O)c2cccc3cccnc23)c(OC(F)(F)F)c1)N1CCN(Cc2cccc(Cl)c2)CC1` [Compound 379, N-(4-(4-(3-chlorobenzyl)piperazine-1-carbonyl)-2-(trifluoromethoxy)phenyl)quinoline-8-sulfonamide] yielded an AC50 of 100 to 500 nM.

`COc1cc(C(=O)N2CCN(C(=O)c3cccc(OC)c3F)CC2)ccc1NS(=O)(=O)c1cccc2cccnc12` [Compound 320, N-(4-(4-(2-fluoro-3-methoxybenzoyl)piperazine-1-carbonyl)-2-methoxyphenyl)quinoline-8-sulfonamide] came in with an AC50 of 100 to 500 nM.

`O=C(c1ccc(NS(=O)(=O)c2cccc3cccnc23)c(OC(F)(F)F)c1)N1CCN(Cc2cnccc2C(F)(F)F)CC1` [Compound 366, N-(2-(trifluoromethoxy)-4-(4-((4-(trifluoromethyl)pyridin-3-yl)methyl)piperazine-1-arbonyl)phenyl)quinoline-8-sulfonamide] came in with an AC50 of 100 to 500 nM.

Turning to `O=C(OCCC1CCCC1)N1CCN(C(=O)c2ccc(NS(=O)(=O)c3cccc4cccnc34)c(OC(F)(F)F)c2)CC1` [Compound 312, 2-cyclopentylethyl-4-(4-(quinoline-8-sulfonamido)-3-(trifluoromethoxy)benzoyl)piperazine-1-carboxylate], the AC50 was 500 to 1000 nM.
